In the supplement of paper PMC10307832:

Columns and labels:
Assay in all cases: relative viability (nuclei count vs DMSO), 5 days (fraction); higher = more cells survive
[1] = compound: CC1=CC(=CC=C1)NC2=NC(=CS2)C3=CC=NC=C3 + Cc1cc(Nc2cc(N3CCN(C)CC3)nc(Sc3ccc(NC(=O)C4CC4)cc3)n2)n[nH]1 [Tozasertib] (partner 0.1 µM)
Procedure, shortened: (§1)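 For relative viability, nuclei counts in treated wells were divided by those in vehicle wells. Lung cancer cell lines had been pin-tool dosed in 1536-well plates the day after seeding and cultured for 5 days, then fixed and stained in one step (final 0.05% Triton X-100, 1% formaldehyde, 1 ug/ml Hoechst) and imaged at 4×. Doses were one drug alone or a fixed anchor-drug dose plus five library-drug doses (not always all listed) in √10 steps, and values are duplicate-plate medians.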

[2] = compound: Cc1ccc(NC(=O)c2ccc(CN3CCN(C)CC3)cc2)cc1Nc1nc(-c2cccnc2)cs1 [Masitinib] + CC1(C)CCC(c2ccc(Cl)cc2)=C(CN2CCN(c3ccc(C(=O)NS(=O)(=O)c4ccc(N[C@H](CCN5CCOCC5)CSc5ccccc5)c(S(=O)(=O)C(F)(F)F)c4)cc3)CC2)C1 [Navitoclax] (partner 0.5 µM)
Procedure, shortened: as §1

[3] = compound: Cc1ccc(NC(=O)c2ccc(CN3CCN(C)CC3)cc2)cc1Nc1nc(-c2cccnc2)cs1 [Masitinib] + C[C@@H](Oc1cc(-c2cnn(C3CCNCC3)c2)cnc1N)c1c(Cl)ccc(F)c1Cl [Crizotinib] (partner 1 µM)
Procedure, shortened: as §1

[4] = compound: Cc1ccc(NC(=O)c2ccc(CN3CCN(C)CC3)cc2)cc1Nc1nc(-c2cccnc2)cs1 [Masitinib] + Nc1nc2[nH]cc(CCc3ccc(C(=O)N[C@@H](CCC(=O)O)C(=O)O)cc3)c2c(=O)[nH]1 [Pemetrexed] (partner 0.2 µM)
Procedure, shortened: as §1

Cell Line	relative viability ([1]; first compound 0.08 µM)	relative viability ([1]; first compound 0.253 µM)	relative viability ([1]; first compound 0.8 µM)	relative viability ([1]; first compound 2.53 µM)	relative viability ([1]; first compound 8 µM)	relative viability ([2]; first compound 0.01 µM)	relative viability ([2]; first compound 0.03162 µM)	relative viability ([2]; first compound 0.1 µM)	relative viability ([2]; first compound 0.3162 µM)	relative viability ([2]; first compound 1 µM)	relative viability ([3]; first compound 0.01 µM)	relative viability ([3]; first compound 0.03162 µM)	relative viability ([3]; first compound 0.1 µM)	relative viability ([3]; first compound 0.3162 µM)	relative viability ([3]; first compound 1 µM)	relative viability ([4]; first compound 0.01 µM)	relative viability ([4]; first compound 0.03162 µM)	relative viability ([4]; first compound 0.1 µM)	relative viability ([4]; first compound 0.3162 µM)	relative viability ([4]; first compound 1 µM)
NCI-H2228	0.24	0.198	0.175	0.162	0.157	0.899	1.05	1.08	0.705	0.817	0.417	0.481	0.717	0.415	0.669	0.342	0.372	0.347	0.347	0.363
HOP-62	0.378	0.381	0.363	0.41	0.421	0.93	1.02	0.76	1.11	1.05	0.659	0.88	1.09	1.08	0.898	0.286	0.325	0.323	0.462	0.404
CAL-12T	0.381	0.277	0.32	0.25	0.185	1.52	1.32	1.26	1.17	1.25	0.625	0.472	0.623	0.66	0.464	1.11	1.15	1.29	1.4	1.28
NCI-H596	0.93	0.968	0.745	0.861	0.746	0.876	0.855	0.86	0.894	0.866	0.964	1.1	1.06	0.931	0.981	0.553	0.536	0.501	0.463	0.472
NCI-H2085	0.748	0.744	0.652	0.467	0.421	1.1	1.23	1.33	1.16	1.03	0.784	0.775	0.868	0.985	0.853	0.976	0.936	1.01	0.992	0.844
NCI-H2023	0.332	0.332	0.321	0.228	0.116	1.05	0.981	1.12	0.925	0.92	0.638	0.737	0.645	0.493	0.589	0.228	0.201	0.207	0.244	0.215
